Assays:
[1] = system: RENCA tumour cells; assay: Antitumor activity, RENCA model (tumour volume); assay type: in vivo, mouse; details: D18 and D22, compared to untreated and vehicle groups, FIG. 3B
Method: Treatment schedule—The start of first dosing was considered as D0. On D0, non-engrafted mice were randomized according to their individual body weight into groups of 9 mice using Vivo Manager® software (Biosystemes, Couternon, France). On D0, the mice received vehicle (culture medium) or bacterial strain (2×10^8 in 200 μL, PO). On D14, all mice were engrafted with RENCA tumour cells injected SC into the ventral surface of the lower flank as described below. Treatment with anti-CTLA-4 (10 mg/kg, IP) and anti-PDL1 (clone 10F.9G2, 10 mg/kg) was initiated when tumours reached a volume of 50-70 mm3.
Orthotopic induction of RENCA tumor cells in animals by SC injection—On D14, one million (1×10^6) RENCA tumor cells in 50 μL RPMI 1640 medium were transplanted via SC injection into the ventral surface of the lower flank of mice.
Euthanasia—Each mouse was euthanized when it reached a humane endpoint as described in section below, or after a maximum of 6 weeks post start of dosing.
Evaluation of tumour burden at euthanasia—At the time of termination, tumours were collected and their volume evaluated.
Clinical monitoring—The length and width of the tumour was measured twice a week with callipers and the volume of the tumour was estimated by this formula [52]: […]

[2] = system: immature dendritic cells; assay: Cytokine production in immature dendritic cells; assay type: cell-based; details: MRX518 10^7/ml, LPS 100 ng/ml
Method: This study tested the effect of the bacterial strain MRX518 alone and in combination with lipopolysaccharide (LPS) on cytokine production in immature dendritic cells.
A monocyte population was isolated from peripheral blood mononuclear cells (PBMCs). The monocyte cells were subsequently differentiated into immature dendritic cells. The immature dendritic cells were plated out at 200,000 cells/well and incubated with MRX518 at a final concentration of 10^7/ml, with the optional addition of LPS at a final concentration of 100 ng/ml. The negative control involved incubating the cells with RPMI media alone and positive controls incubated the cells with LPS at a final concentration of 100 ng/ml. The cytokine content of the cells was then analysed.

[3] = compared to the negative control, FIGS. 4a-d

CC(=O)O[C@H]1C(=O)[C@@]2(C)[C@H]([C@H](OC(=O)c3ccccc3)[C@]3(O)C[C@H](OC(=O)[C@H](O)[C@@H](NC(=O)c4ccccc4)c4ccccc4)C(C)=C1C3(C)C)[C@]1(OC(C)=O)CO[C@@H]1C[C@@H]2O [Paclitaxel]
tumour size [1]: (almost) complete reduction in tumour size

lipopolysaccharide [LPS]
level of IL-1β ([2]; FIGS. 4b, 4d): not IL-1β | level of IL-6 [2, 3]: increase | level of TNF-α [2, 3]: increase
